In data set [1] the test system is S. cerevisiae W303a lab strain. The data set can be described thus: Methyl iodide toxicity assay in yeast. In kind it is cell-based, Saccharomyces cerevisiae. To be noted: cultures diluted to OD600 0.05, OD600 at 24 hours, FIG. 11D. The text has this: (§1) FIG. 11A-D: Methyl iodide production in recombinant S. cerevisiae. FIG. 11A. CH3I production pathway. The B. maritima MHT is expressed with a N-terminal vacuole targeting tag. The […] MHT methylates iodide ions using SAM as a methyl donor. FIG. 11B, CH3I measured in culture headspace over time. Activity on glucose-grown cells is shown. FIG. 11C, CH3I yields in grams per liter of culture per day. Values for the culturable red algae E. muricata are taken from the literature. Yields from B. maritime MHT-expressing E. coli and S. cerevisiae are calculated by comparison to standard curves. FIG. 11D, CH3I toxicity in yeast. Exponential phase cultures were diluted to an OD600 of 0.05 and commercially available CH3I was added. OD600 was measured at 24 hours of growth. The W303a lab strain is shown in filled boxes, the DNA methylation-sensitive RAD50Δ mutant is shown in open boxes.
(§2) The response of the host organism to toxic effects of an overproduced metabolite is important for development of an integrated industrial process. Methyl halides are SN2 methylating agents known to cause cytotoxic lesions in ssDNA and RNA. […]
(§3) Individual colonies were inoculated in YP media with 2% glucose and grown overnight. […] OD600 was measured by spectrometry with YP media used as a blank. […]

The test system of data set [2] is RAD50Δ mutant. The format is cell-based, Saccharomyces cerevisiae. The note with it: RAD50Δ mutant versus W303a, OD600 at 24 hours.
Excerpt: as §1, §2, §3

Data set [3] addresses methyl halide transferase (MHT) (Batis maritima, UniProt Q9ZSZ7). The note with it: halide ion as substrate; Attieh et al. 1995, Ni and Hager 1999; cited from earlier work.
Data set [4] relates to A. fermentans. The note with it: accumulation of fermentation products; cited from earlier work.
The test system of data set [5] is methyl bromide and methyl iodide production in E. Coli. Briefly: Methyl halide production by heterologous MHTs expressed in E. coli (Example 8, headspace GC/MS). The format is cell-based. To be noted: FIG. 7. How it is done:
Nineteen methyl halide transferase genes from various organisms were codon-optimized and introduced into E. Coli. Production of methyl bromide and methyl iodide was determined for each. […] Group II UBA; Cryptococcus neoformans var. neoformans JEC21; Oryza sativa (japonica cultivar-group); Ostreococcus tauri; Dechloromonas aromatica RCB; Coprinopsis cinerea okayama; Robiginitalea bofirmata HTCC2501; Maricaulis maris MCS10; Flavobacteria bacterium BBFL7; Vitis vinifera and; halorhodospira halophila SL1.
For each strain a single colony was picked and grown overnight (10-14 hrs) in 20 mL of LB miller in a 30 mL glass test tube with aeration (a loose cap) at 37 C and 250 rpm shaking. The culture was spun down in a swinging bucket centrifuge for 5 min @ 3000×g. The cells were resuspended in 20mL of appropriate media (10 g/L Tryptone, 5 g/L Yeast Extract, 165 mM NaX [where X=CI, Br, I]) containing 100 uM IPTG inducer. The cells were sealed with rubber stoppers and parafilm and grown at 37 C with 250 rpm shaking for 1.5 hours. Cultures were taken to the GC/MS and 100 uL of headspace gas was sampled and loaded onto the column. The method run was VOIGT.m. The number of counts for the appropriate mass (MeCl, MeBr, MeI) were reported. Cells were always grown in the presence of 30 ug/mL chloramphenicol.
Methyl halide production was measured as described in the previous Examples. […] C. neoformans JEC21 gave the best methyl bromide and methyl iodide production. Leptospirillum gave the best methyl iodide production.

The subject of data set [6] is methyl halide production in E. coli on chloride, bromide and iodide. The data set can be described thus: MHT library screen for methyl halide activity in E. coli (Example 9B). The format is cell-based. The note with it: library of 89 genes, FIG. 10A.
Excerpt: As described in Example 9A, to screen for MHTs with high activity in a recombinant host, we synthesized all putative MHTs from the NCBI sequence database and assayed methyl halide production in E. colit. […] These genes were computationally codon optimized for E. coli and yeast expression and constructed using automated whole gene DNA synthesis.
Methyl halide production was sampled by analyzing the headspace gas using GC-MS (Supplementary Information).
Bacteria carrying MHT expression vectors were inoculated from freshly streaked plates and grown overnight. Cells were diluted 100-fold into media containing 1 mM IPTG and 100 mM appropriate sodium halide salt. Culture tubes were sealed with a rubber stopper and grown at 37 degrees for 3 hours. Yeast carrying MHT expression vectors were streaked on uracil dropout plates from freezer stocks (15% glycerol) and grown for 48 hours. Individual colonies were inoculated into 2 mL of synthetic complete uracil dropout media and grown overnight at 30 degrees. Cultures were next inoculated into 100 mL fresh synthetic complete uracil dropout media and grown for 24 hours. Cells were spun down and concentrated to high cell density (OD 50) in fresh YP media with 2% glucose and 100 mM sodium iodide salt. 10 mL of this concentrated culture was aliquoted into 14 mL culture tubes and sealed with a rubber stopper. […]

For `CI` [methyl iodide], the “level up to which yeast were resistant to deleterious methylating effects of methyl iodide” value in data set [1] is more than 5000 µg/mL. Moreover, the “sensitivity to methyl iodide” value in data set [2] was “increased sensitivity”.
On to `I` [I^−, iodide], for which the Michaelis-Menten constant (Km) in data set [3] is 8.5 mM.
Consider `[Br-].[K+]` [Br^−, bromide], for which the Km in data set [3] is 18.5 mM.
Consider `CCO` [ethanol], for which the A. fermentans growth result in data set [4] was “inhibited”.
Take `CC(=O)O` [acetate]: in data set [4], the A. fermentans growth entry is given as “inhibited”.

B1: B. maritima: methyl halide transferase from Batis maritima, SEQ ID NO: 3 (protein, listed as Batis maritima)
chain: MSTVANIAPVFTGDCKTIPTPEECATFLYKVVNSGGWEKCWVEEVIPWDLGVPTPLVLHLVKNNALPNGKGLVPGCGGGYDVVAMANPERFMVGLDISENALKKARETFSTMPNSSCFSFVKEDVFTWRPEQPFDFIFDYVFFCAIDPKMRPAWGKAMYELLKPDGELITLMYPITNHEGGPPFSVSESEYEKVLVPLGFKQLSLEDYSDLAVEPRKGKEKLARWKKMNN
Take B1: in data set [5] (165 mM NaX, 100 uM IPTG, 1.5 hours), the methyl bromide production result was “best”. For the same molecule, the “halide specificity of methyl halide production” value in data set [5] is given as “significant specificity for methyl bromide production”. Besides, the “methyl halide activity on each ion (chloride, bromide, iodide)” value in data set [6] is on record as “highest activity”.

B2: Brassica rapa subsp. chinensis: methyl halide transferase from Brassica rapa subsp. chinensis, SEQ ID NO: 6 (protein, listed as Brassica rapa)
chain: MAEVQQNSAHINGENIIPPEDVAKFLPKTVEEGGWEKCWEDGVTPWDQGRATPLVVHLVESSSLPLGRALVPGCGGGHDVVAMASPERYVVGLDISESALEKAAETYGSSPKAKYFTFVKEDFFTWRPNELFDLIFDYVVFCAIEPETRPAWAKAMYELLKPDGELITLMYPITDHDGGPPYKVAFSTYEDVLVPVGFKAVSIEENPYSIATRKGKEKLARWKKIN
For B2, the “halide specificity of methyl halide production” value in data set [5] is on record as “significant specificity for methyl bromide production”.

The values above are taken from US9040266B2, “Cell-based systems for production of methyl formate” (The Regents of the University of California, priority 2009, dated 2015).
